Literature values as cited in US9730952B2, “Methods for treating and preventing mucositis” (Indena S.p.A., priority 2006, dated 2017).

Key:
[1] = system: numerous strains of Candida and other pathogenic fungi

Row | SMILES | concentration inhibiting growth of numerous strains of Candida and other pathogenic fungi [1] | concentration inhibiting growth of Gram+ and Gram− bacteria (Gram+ and Gram− bacteria)
1 | COc1ccc2c(c[n+](C)c3c4cc5c(cc4ccc23)OCO5)c1OC [chelerythrine] | nanomolar concentrations | nanomolar concentrations
2 | CN1Cc2c(ccc3c2OCO3)[C@@H]2[C@H]1c1cc3c(cc1C[C@@H]2O)OCO3 [chelidonine] | nanomolar concentrations | nanomolar concentrations
